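Cells were grown in 96-well plates and exposed to each compound for 48 hours at five concentrations; endpoints were interpolated linearly between bracketing concentrations, or set to the highest concentration if not reached. GI50 = concentration required for 50% inhibition of growth.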 Active and inactive are the calls of the source. Cut-off read from the data, not from the text of the source: active = GI50 up to about 1.1 µM and inactive = higher. Some results are limits rather than exact numbers.

Some test systems named below: A549; NCI-H226; HT-29; KM12; NCI/ADR-RES; OVCAR-4; M14; HCC 2998; COLO 205; SR; SK-MEL-5; HL-60; SK-OV-3; UACC-257; RXF 393; Hs-578T; BT-549; HCT-15; SK-MEL-28; NCI-H522.
Common to all, as to test: NCI tumour cell line growth inhibition, 48 h

In the case of `Cc1ccc2c(O)cc(-c3ccccc3)nc2n1`, the GI50 was 221 nM (active) in the test with A549; 472 nM (active) with NCI-H226; 37.8 nM (active) with HT-29; 30.4 nM (active) in the test with KM12; 36.7 nM (active) in the test on NCI/ADR-RES; 5240 nM (inactive) in the test on OVCAR-4. Also, the GI50 in the test on M14 was 64.3 nM (active); in the test on HCC 2998, 157 nM (active); with COLO 205, 37.8 nM (active); in the test on SR it was < 30.6 nM (active); in the test with SK-MEL-5, 51.2 nM (active); in the test on HL-60, 25.5 nM (active). In addition, the GI50 in the test with SK-OV-3 is 105 nM (active); in the test with UACC-257, 285 nM (active); in the test on RXF 393 it was 127 nM (active); in the test with Hs-578T it was 91 nM (active); with BT-549, 122 nM (active); in the test with HCT-15, 35.2 nM. The GI50 with SK-MEL-28 is 181 nM (active); in the test on NCI-H522, 53.2 nM (active).

For `COC1=C(Br)[C@H](O)[C@@]2(C=C1Br)CC(C(=O)NCCCOc1c(Br)cc(C(O)CNC(C)=O)cc1Br)=NO2` (stereo not given in full) [APLYSINAMISINE III], the GI50 with A549, in the test on NCI-H226, in the test on HT-29, in the test on KM12, with NCI/ADR-RES and in the test with OVCAR-4 was > 10000 nM (inactive) each time. Further, the GI50 in the test with M14 is 8730 nM (inactive); with HCC 2998 it was > 10000 nM (inactive); in the test with COLO 205 it was > 10000 nM (inactive); with SR, 5.18 nM (active); with SK-MEL-5, 4860 nM (inactive); in the test on HL-60, 2190 nM (inactive). The GI50 was > 10000 nM (inactive) with SK-OV-3; > 10000 nM (inactive) in the test on UACC-257; > 10000 nM (inactive) with RXF 393; > 10000 nM (inactive) in the test with Hs-578T; 2790 nM (inactive) in the test with BT-549; above 10000 nM in the test with HCT-15. Besides, the GI50 in the test on SK-MEL-28 is > 10000 nM (inactive); with NCI-H522, 4170 nM (inactive).

Turning to `CC1=C2C(=C[C@@](C)(CO)[C@@H]2O)C(=O)[C@](C)(O)C12CC2` [ILLUDIN], the GI50 in the test on A549 was 4.58 nM (active); in the test with NCI-H226 it was 23.1 nM (active); with HT-29 it was 3.41 nM (active); with KM12, 21.2 nM (active); in the test on NCI/ADR-RES, 7.4 nM (active); with OVCAR-4 it was 6.67 nM (active). The GI50 in the test with M14 was 8.91 nM (active); in the test on HCC 2998, 13 nM (active); in the test on COLO 205, 7.71 nM (active); in the test with SR, 1.82 nM (active); in the test with SK-MEL-5, 5.96 nM (active); in the test on HL-60 it was 4.27 nM (active). The GI50 was 6.12 nM (active) in the test on SK-OV-3; 14.5 nM (active) in the test on UACC-257; 6.64 nM (active) in the test with RXF 393; 16.9 nM (active) in the test with Hs-578T; 6.58 nM (active) in the test with BT-549; 6.75 nM in the test with HCT-15. Besides, the GI50 was 16.7 nM (active) in the test with SK-MEL-28 and 3.52 nM (active) with NCI-H522.

For the origin of these results see ChEMBL document CHEMBL1201862, “PubChem BioAssay data set” (2004).
